# Columns and labels:
# [1] = target: T1, Glutamate receptor ionotropic, NMDA 1 (Rattus norvegicus, UniProt P35439); experiment: Compound was evaluated for in vitro inhibition of spinal cord at NMDA receptor.
# Glutamate NMDA receptor [2] = experiment: In vitro inhibition of [3H]glycine at NMDA receptor; format: protein-complex assay
# Mus musculus [3] = experiment: In vivo antagonist activity against seizures elicited by audiogenic administered intra peritoneally in mice; format: functional
# [4] = target: T1, Glutamate receptor ionotropic, NMDA 1; experiment: Compound was evaluated for in vitro inhibition of cortical slice at NMDA receptor
# Mus musculus [5] = experiment: Antagonist activity in electroshock in vivo through intravenous route; format: functional
# Mus musculus [6] = experiment: Compound was evaluated for audiogenic seizure in vivo through intra peritoneal route; format: functional
# Rattus norvegicus [7] = experiment: Compound was evaluated for neuroprotection, rat MCAO in vivo through iv route; format: functional
# [8] = target: Glutamate [NMDA] receptor; experiment: Compound was evaluated for in vitro inhibition of myenteric plexus, guinea pig at NMDA receptor; format: protein-complex assay, Cavia porcellus
# Mus musculus [9] = experiment: In vivo antagonist activity against seizures elicited by audiogenic administered icv in mice; format: functional
# [10] = target: T1, Glutamate receptor ionotropic, NMDA 1; experiment: Compound was evaluated for in vitro inhibition of cortical neuron at NMDA receptor
# Gerbillinae [11] = experiment: Compound was evaluated for neuroprotection, in gerbil seizure model in vivo through intraperitoneal route; format: functional
# Glutamate NMDA receptor [12] = experiment: Compound was evaluated for in vitro inhibition of [3H]MK-801 at NMDA receptor; format: protein-complex assay
# Rattus norvegicus [13] = experiment: Compound was evaluated for D-Ser-induced cGMP in vivo through ip route; format: functional
# [14] = Compound was evaluated for harmaline-induced cGMP seizure in vivo through ip route; format: functional
# Rattus norvegicus [15] = experiment: Antagonist activity for neuroprotection, in rat MCAO in vivo through intravenous bolus+infusion route
# Mus musculus [16] = experiment: In vivo antagonist activity against seizures elicited by NMDA in mice administered perorally; format: functional; conditions: po
# Mus musculus [17] = experiment: Antagonist activity in electroshock model in vivo through intravenous route; format: functional
# Mus musculus [18] = experiment: In vivo antagonist activity against seizures elicited by NMDLA in mice administered intravenously; format: functional; conditions: iv
# Mus musculus [19] = experiment: Antagonist activity in PTZ seizure model in vivo through intravenous route; format: functional
# [20] = target: T1, Glutamate receptor ionotropic, NMDA 1; experiment: Compound was evaluated for in vitro inhibition of cGMP cerebellar slice at NMDA receptor.
# Mus musculus [21] = experiment: In vivo antagonist activity against seizures elicited by audiogenic, administered intra peritoneally in mice; format: functional
# Mus musculus [22] = experiment: In vivo antagonist activity against seizures elicited by audiogenic, administered perorally in mice; format: functional; conditions: po
# [23] = target: T2, Glutamate receptor ionotropic, NMDA 2C (Rattus norvegicus, UniProt Q00961); experiment: Compound was evaluated for in vitro inhibition of [3H]-GABA release at NMDA receptor.
# [24] = target: T1, Glutamate receptor ionotropic, NMDA 1; experiment: Compound was evaluated for in vitro inhibition of [3H]L-689,560 at NMDA receptor.
# [25] = target: T2, Glutamate receptor ionotropic, NMDA 2C; experiment: Compound was evaluated for in vitro inhibition of cortical slice release at NMDA receptor.
# Gerbillinae [26] = experiment: Compound was evaluated for neuroprotection, gerbil in vivo through ip route; format: functional
# Mus musculus [27] = experiment: Antagonist activity in PCP hyperactivity seizure model in vivo through subcutaneous route; format: functional; conditions: sc
# Mus musculus [28] = experiment: Antagonist activity in amphetamine hyperactivity seizure model in vivo through intraperitoneal route; format: functional; conditions: ip
# Mus musculus [29] = experiment: In vivo antagonist activity against seizures elicited by NMDLA in mice administered intraperitoneally; format: functional; conditions: ip
# Glutamate NMDA receptor [30] = experiment: Compound was evaluated for in vitro inhibition of [3H]TCP at NMDA receptor; format: protein-complex assay
# Mus musculus [31] = experiment: Antagonist activity in plus-maze in vivo through intraperitoneal route; format: functional; conditions: ip
# Mus musculus [32] = experiment: Antagonist activity in forced swim model, in vivo through intraperitoneal route; format: functional; conditions: ip
# Mus musculus [33] = experiment: In vivo antagonist activity against seizures elicited by NMDA in mice administered intraperitoneally; format: functional; conditions: ip
# Mus musculus [34] = experiment: Antagonist activity in audiogenic seizure model in vivo through icv route; format: functional
# Mus musculus [35] = experiment: Separation-induced vocalization in vivo through ip route; format: functional
# [36] = target: T1, Glutamate receptor ionotropic, NMDA 1; experiment: Compound was evaluated for in vitro inhibition of oocytes at NMDA receptor.; format: cell-based, frog; conditions: oocyte
# Glutamate NMDA receptor [37] = experiment: Compound was evaluated for in vitro inhibition of [3H]-MK-801 at NMDA receptor.; format: protein-complex assay
# Mus musculus [38] = experiment: Compound was evaluated for passive avoidance in vivo through intraperitoneal route; format: functional; conditions: ip
# Mus musculus [39] = experiment: Compound was evaluated for elevation of cGMP in vivo through subcutaneous route; format: functional; conditions: sc
# Mus musculus [40] = experiment: Compound was evaluated for nociception in electroshock mice model in vivo through ip route; format: functional
# T2 sequence (Q00961 whole entry): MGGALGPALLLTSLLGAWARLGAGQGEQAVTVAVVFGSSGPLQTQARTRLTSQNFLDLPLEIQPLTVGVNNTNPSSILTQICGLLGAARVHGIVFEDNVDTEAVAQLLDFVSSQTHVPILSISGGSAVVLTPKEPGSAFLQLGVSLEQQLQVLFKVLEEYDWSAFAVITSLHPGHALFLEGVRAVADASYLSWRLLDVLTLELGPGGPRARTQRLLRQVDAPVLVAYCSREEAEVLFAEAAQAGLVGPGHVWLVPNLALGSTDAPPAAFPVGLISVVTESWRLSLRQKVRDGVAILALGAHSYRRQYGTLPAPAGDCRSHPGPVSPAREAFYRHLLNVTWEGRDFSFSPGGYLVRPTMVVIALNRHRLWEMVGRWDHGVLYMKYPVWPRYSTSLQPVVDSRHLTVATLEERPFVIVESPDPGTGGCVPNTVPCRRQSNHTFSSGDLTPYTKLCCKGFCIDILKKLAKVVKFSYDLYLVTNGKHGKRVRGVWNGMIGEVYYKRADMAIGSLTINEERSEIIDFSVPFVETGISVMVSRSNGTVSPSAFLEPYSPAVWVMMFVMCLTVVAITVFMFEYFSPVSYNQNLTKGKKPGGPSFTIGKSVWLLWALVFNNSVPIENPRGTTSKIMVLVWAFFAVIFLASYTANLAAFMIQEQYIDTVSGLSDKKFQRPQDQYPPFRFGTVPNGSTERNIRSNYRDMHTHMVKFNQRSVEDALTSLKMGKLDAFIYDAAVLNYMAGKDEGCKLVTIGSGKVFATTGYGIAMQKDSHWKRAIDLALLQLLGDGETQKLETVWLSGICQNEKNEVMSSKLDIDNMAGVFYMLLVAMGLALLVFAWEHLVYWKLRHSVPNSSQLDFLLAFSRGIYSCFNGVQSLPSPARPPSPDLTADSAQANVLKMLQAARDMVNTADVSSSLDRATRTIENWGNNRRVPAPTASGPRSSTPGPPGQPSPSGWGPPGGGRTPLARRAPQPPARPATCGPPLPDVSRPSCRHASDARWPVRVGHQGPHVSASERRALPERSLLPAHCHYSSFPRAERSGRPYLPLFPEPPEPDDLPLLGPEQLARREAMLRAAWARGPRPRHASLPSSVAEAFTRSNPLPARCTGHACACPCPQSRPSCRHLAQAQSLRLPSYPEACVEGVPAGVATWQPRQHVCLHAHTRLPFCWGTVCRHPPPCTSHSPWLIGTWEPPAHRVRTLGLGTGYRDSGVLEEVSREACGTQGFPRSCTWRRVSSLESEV
structure (smiles),measurement,setting,value
Oc1ccc(-c2c(O)nc3cc(Cl)cc(Cl)c3c2O)cc1,IC50,[1],2100 nM
same,IC50,Glutamate NMDA receptor [2],11 nM
O=C(c1c(O)nc2cc(Cl)ccc2c1O)C1CC1,ED50,Mus musculus [3],4.1 mg/kg
O=C(NS(=O)(=O)c1ccccc1)c1nc2cc(Cl)c(Cl)cc2[nH]c1=O,IC50,[4],11000 nM
same,ED50,Mus musculus [5],> 100 mg/kg
same,IC50,Glutamate NMDA receptor [2],120 nM
CC(CN(C)C)OC(=O)c1cc(O)c2c(Cl)cc(Cl)cc2n1 (configuration not stated),ED50,Mus musculus [6],62 mg/kg
O=C(O)c1nc2c(Cl)cc(Cl)cc2[nH]1,IC50,Glutamate NMDA receptor [2],800 nM
O=C(O)c1cc(S)c2ccc(Cl)cc2n1,ED50,Rattus norvegicus [7],20 mg/kg
same,IC50,Glutamate NMDA receptor [2],400 nM
same,IC50,[8],5000 nM
NCc1ccc(NC(=O)CCc2c(C(=O)O)[nH]c3cc(Cl)cc(Cl)c23)cc1,IC50,Glutamate NMDA receptor [2],27 nM
NC(Cc1ccc(CC(=O)N[C@H]2C[C@H](C(=O)O)Nc3cc(Cl)cc(Cl)c32)cc1)C(=O)O (some centres not stated),ED50,Mus musculus [9],0.5
same,ED50,Mus musculus [3],29 mg/kg
N[C@H]1C(=O)N(O)C[C@H]1O,IC50,Glutamate NMDA receptor [2],1300 nM
same,Ki,[10],750 nM
O=c1[nH][nH]c(=O)c2c(O)c3c(Cl)cc(Cl)cc3nc12,IC50,Glutamate NMDA receptor [2],100 nM
same,MED50,Gerbillinae [11],10 mg/kg
CN(C(=O)c1ccccc1)c1c(C(=O)O)[nH]c2cc(Cl)ccc12,IC50,Glutamate NMDA receptor [2],110 nM
NCc1ccc(CC(=O)N[C@H]2C[C@H](C(=O)O)Nc3cc(Cl)cc(Cl)c32)cc1,ED50,Mus musculus [9],3.5
same,ED50,Mus musculus [3],39 mg/kg
COC(=O)[C@H]1C[C@H](NC(=O)Cc2ccc(CN)cc2)c2c(Cl)cc(Cl)cc2N1,ED50,Mus musculus [3],32 mg/kg
N[C@H](/C=C/CCO)C(=O)O,EC50,Glutamate NMDA receptor [12],330 nM
same,IC50,Glutamate NMDA receptor [2],240 nM
O=C(O)Cc1c(C(=O)O)[nH]c2cc(Cl)ccc12,ED50,Rattus norvegicus [13],5.4 µg
same,ED50,"Rattus norvegicus [13]; Rattus norvegicus, ip, read-out: ED50",> 50 mg/kg
same,IC50,Glutamate NMDA receptor [2],960 nM
CCOC(=O)Cc1c(C(=O)O)[nH]c2cc(Cl)ccc12,IC50,Glutamate NMDA receptor [2],630 nM
same,MED50,[14],100 mg/kg
C[C@@H]1CN(O)C(=O)[C@@H]1N,ED50,Rattus norvegicus [15],13.5 mg/kg
same,ED50,Mus musculus [16],44 mg/kg
same,ED50,Mus musculus [17],26 mg/kg
same,IC50,Glutamate NMDA receptor [2],1400 nM
same,ED50,Mus musculus [18],20 mg/kg
same,ED50,Mus musculus [3],5.1 mg/kg
same,ED50,Mus musculus [19],13 mg/kg
same,Ki,[10],650 nM
O=C(Nc1ccccc1)N[C@H]1C[C@H](C(=O)O)Nc2cc(Cl)cc(Cl)c21,IC50,Glutamate NMDA receptor [2],7.8 nM
same,ED50,Mus musculus [3],> 100 mg/kg
O=C(O)CSc1c(C(=O)O)[nH]c2cc(Cl)cc(Cl)c12,EC50,[4],140000 nM
O=C(O)CCc1c(C(=O)O)[nH]c2cc(Cl)cc(Cl)c12,ED50,Mus musculus [9],0.09 µg
same,IC50,[20],2700 nM
same,ED50,Mus musculus [3],100 mg/kg
O=c1[nH]c2cc(Cl)ccc2c(O)c1-c1cccc(Oc2ccccc2)c1,ED50,Mus musculus [21],0.9 mg/kg
same,ED50,Mus musculus [22],0.9 mg/kg
O=c1[nH]c2cc(Cl)ccc2c(O)c1-c1cccc(Oc2ccsc2)c1,ED50,Mus musculus [21],0.8 mg/kg
same,IC50,Glutamate NMDA receptor [2],1.4 nM
same,ED50,Mus musculus [22],0.9 mg/kg
O=[N+]([O-])c1cc([N+](=O)[O-])c2nc(O)c(O)nc2c1,EC50,[23],400 nM
same,IC50,Glutamate NMDA receptor [2],1000 nM
same,IC50,[24],170 nM
same,IC50,[25],400 nM
Oc1nc2cc(Cl)c(Cl)cc2n2ccnc12,IC50,Glutamate NMDA receptor [2],6000 nM
O=c1[nH][nH]c(=O)c2c1[nH]c1cc(Cl)cc(Cl)c12,IC50,Glutamate NMDA receptor [2],410 nM
same,MED50,Gerbillinae [26],10 mg/kg
N[C@@H]1CCN(O)C1=O,ED50,Mus musculus [21],53 mg/kg
same,ED50,Mus musculus [27],30 mg/kg
same,ED50,Mus musculus [28],30 mg/kg
same,IC50,Glutamate NMDA receptor [2],12500 nM
same,ED50,Mus musculus [29],890 mg/kg
same,Ki,[10],2500 nM
NCC(=O)Nn1ccc2ccccc21,IC50,Glutamate NMDA receptor [2],36000 nM
same,EC50,Glutamate NMDA receptor [30],3600 nM
same,IC50,Glutamate NMDA receptor [30],780000 nM
O=C1C2CC(CCN2)N1O (configuration not stated),IC50,Glutamate NMDA receptor [2],19000 nM
same,Ki,[10],3500 nM
COC(=O)C1(N)CC1,ED50,Mus musculus [31],200 mg/kg
same,IC50,Glutamate NMDA receptor [2],> 40000 nM
same,ED50,Mus musculus [32],100 mg/kg
same,ED50,Mus musculus [33],46 mg/kg
O=C(C[C@@H]1CCc2cc(Br)cc3[nH]c(=O)c(=O)n1c23)Nc1ccccc1,IC50,Glutamate NMDA receptor [2],2.6 nM
O=c1cc(O)c2c(Cl)cc(Cl)cc2[nH]c1=O,IC50,Glutamate NMDA receptor [2],31 nM
O=C(O)c1cc(O)c2c(Cl)cc(Cl)cc2n1,ED50,Mus musculus [34],7.5 nM
same,ED50,Mus musculus [35],67 mg/kg
same,ED50,Mus musculus [3],> 250 mg/kg
N[C@@H](/C=C/CCO)C(=O)O,EC50,Glutamate NMDA receptor [12],930 nM
same,IC50,Glutamate NMDA receptor [2],750 nM
O=C(O)C1Nc2cc(Cl)cc(Cl)c2S(=O)(=O)N1Cc1cccc(Br)c1 (configuration not stated),IC50,Glutamate NMDA receptor [2],8 nM
O=C(O)Cn1c(=O)c(=O)[nH]c2cc(Cl)c(Cl)cc21,IC50,Glutamate NMDA receptor [2],110 nM
N#Cc1cc2c(cc1[N+](=O)[O-])=NC(=O)C(=O)N=2,IC50,Glutamate NMDA receptor [2],4800 nM
NC1(C(=O)O)CCC1 [1-AMINOCYCLOBUTANE CARBOXYLIC ACID],IC50,[36],18500 nM
same,IC50,Glutamate NMDA receptor [2],19000 nM
NC1(C(=O)O)CC1 [1-Aminocyclopropane carboxylic acid],EC50,Glutamate NMDA receptor [37],140 nM
same,IC50,Glutamate NMDA receptor [2],40 nM
"O=C(O)c1nc2cc(Cl)c(Cl)cc2nc1O [6,7-DICHLORO-3-HYDROXY-2-QUINOXALINECARBOXYLIC ACID]",IC50,Glutamate NMDA receptor [2],460 nM
N[C@@H]1CONC1=O [CYCLOSERINE],ED50,Mus musculus [38],3 mg/kg
same,ED50,Mus musculus [39],1.25 mg/kg
O=c1[nH]c2cc([N+](=O)[O-])c([N+](=O)[O-])cc2[nH]c1=O [DNQX],IC50,Glutamate NMDA receptor [2],1300 nM
O=c1[nH]c2cc(Cl)c(Cl)c([N+](=O)[O-])c2[nH]c1=O [LICOSTINEL],ED50,Mus musculus [40],5 mg/kg
O=C(O)c1cc(=O)c2ccccc2[nH]1 [TRANSTORINE],ED50,Mus musculus [34],20 nM
same,ED50,Mus musculus [3],> 250 mg/kg

# From ChEMBL document CHEMBL1127805 (J Med Chem, 1994)
